Like-named read-outs stand apart in the source and are kept apart here.
Key:
Type in all cases: in vivo
Ambrosia artemisiifolia = assay: Test Example 1: seeds on filter paper moistened with chemical solution, herbicidal effect visually evaluated; settings: Ambrosia artemisiifolia, 144 h, visually evaluated 6 days after treatment
Procedure: As the compound (1), 1-methoxy-3-methyl-6-(1,1-dioxido-8-(trifluoromethyl)thiochroman-5-yl)-7-oxa-3,4-diazabicyclo[4.1.0]hept-4-en-2-one (Compound (I-3)) was used.
(§1) The compound (I) or compound (II) was prepared into a 5% emulsion using DMF (containing 1.5% Tween) and diluted with water to a prescribed dosage concentration. Commercially available preparations were dissolved in water and adjusted to a prescribed dosage concentration.
(§2) Seeds were soaked in 0.6% sodium hypochlorite for a predetermined time for surface sterilization and washed with water for use (seed disinfection). Seeds of Ambrosia artemisiifolia were used for the test.
(§3) Filter paper was placed on a cup (diameter: 10 cm, height: 4 cm) with a lid and moistened with 8 ml of chemical solution, and seeds were sown thereon, and after covering with a lid, grown in a constant temperature room.
(§4) The herbicidal effects were visually evaluated, 6 days after the treatment, as the herbicidal effect (%), by comparing with a state of an untreated group using a total of 21 scores of withering index from 0 to 20 (0: mortality rate equivalent to that of the untreated group, 20: mortality rate of 100%).
(§5) In addition, the expected values of the herbicidal effects were calculated from the herbicidal effects in a case where the compound (I) alone was applied and the herbicidal effects in a case where the compound (II) alone was applied by using the Colby's formula (Colby, S. R., Calculating synergistic and antagonistic responses of herbicide combinations, Weeds, 15, pp. 20-22 (1967)).
(§6) M indicates an herbicidal effect (%) in the application of the compound (I) alone, N indicates an herbicidal effect (%) in the application of the compound (II) alone, and E indicates an expected value (%) of the herbicidal effect in the combined application of the compound (T) and the compound (TT). When the actual measured value (%) of the herbicidal effect in the combined application of the compound (I) and the compound (II) is greater than the expected value E, it can be regarded that the combined application of the compound (I) and the compound (II) has a synergistic effect.

Digitaria ciliaris = assay: Test Example 2: seeds on filter paper moistened with chemical solution, herbicidal effect visually evaluated; settings: Compound (I-3) alone, 0.2 ppm, 6 days after the treatment
Abutilon theophrasti = assay: Test Example 3: seeds on filter paper moistened with chemical solution, herbicidal effect visually evaluated; settings: Compound (I-3) alone, 6 days after the treatment
Procedure: as §1, §2, §3, §4, §5, §6
The herbicidal effects were evaluated by the same method as in Test Example 1 except that the seeds used in the test were changed from Ambrosia artemisiifolia to Abutilon theophrasti.

Zea mays = assay: Test Example 4: foliar spraying treatment, herbicidal effect from above ground weight (useful plant); settings: Compound (I-3) alone, 63 gai/ha, 3 weeks after spraying
Procedure: (§7) POA allylphenyl ether (4.1 parts by weight), POE-POP glycol (1 part by weight), POE sorbitan laurate (0.8 parts by weight), glycerin (2.6 parts by weight), dimethylformamide (65.9 parts by weight), N-methylpyrrolidone (5.1 parts by weight), cyclohexanone (15.4 parts by weight), and aromatic hydrocarbons (5.1 parts by weight) were mixed and dissolved to prepare an emulsion. The active ingredient (4 mg) of the composition of the present invention was dissolved in this emulsion (100 μL) to prepare a test emulsion. It should be noted that POA means “polyoxyalkylene”, POE means “polyoxyethylene”, and POP means “polyoxypropylene”.
(§8) A 300 cm^2 pot was filled with soil, and seeds of Zea mays, Setaria faberi, Sorghum halepense, Brachiaria platyphylla, Amaranthus palmeri, Senna obtusifolia and Ipomoea hederacea were sown into the surface layer, and then grown in a greenhouse after being covered lightly with soil. When each plant grew to a plant height of 7 to 11 cm, it was used for the test. The test emulsion was diluted so that the amount of the active ingredient became a predetermined amount, and sprayed on the foliage with a small sprayer at a spray water volume of 250 L per hectare.
(§9) For the evaluation of the herbicidal effects, the above ground weights of weeds in the untreated and treated areas were measured for each weed 3 weeks after spraying treatment, and the herbicidal effect (%) was calculated by the following calculation formula.
as §5, with “(1967)). […]” for “(1967)).”

Amaranthus palmeri = assay: Test Example 4: foliar spraying treatment, herbicidal effect from above ground weight; settings: Compound (I-3) alone, 63 gai/ha, 3 weeks after spraying
Procedure: as §7, §8, §9, §5
(§10) M indicates an herbicidal effect (%) in the application of the compound (1) alone, N indicates an herbicidal effect (%) in the application of the compound (II) alone, and E indicates an expected value (%) of the herbicidal effect in the combined application of the compound (I) and the compound (II). When the actual measured value (%) of the herbicidal effect in the combined application of the compound (I) and the compound (II) is greater than the expected value E, it can be regarded that the combined application of the compound (1) and the compound (II) has a synergistic effect.
(§11) Herbicidal effect (%)=[(above ground weight of weeds in untreated area)−(above ground weight of weeds in treated area)/(above ground weight of weeds in untreated area)]×100
(§12) The following grass species were used as grass species to be controlled [scientific names]. • Giant foxtail [Setaria faberi] • Johnson grass [Sorghum halepense] • Broadleaf signalgrass [Brachiaria platyphylla] • Palmer amaranth [Amaranthus palmeri] • Sicklepod [Senna obtusifolia] • Morning glory [Ipomoea hederacea]

Brachiaria platyphylla = assay: as above; settings: Compound (I-3) alone, 63 gai/ha, 3 weeks after spraying
Procedure: as §7, §8, §9, §5, §10, §11, §12

Ipomoea hederacea = assay: as above; settings: Compound (I-3) alone, 63 gai/ha, 3 weeks after spraying
Procedure: as §7, §8, §9, §5, §10, §11, §12

Senna obtusifolia = assay: as above; settings: Compound (I-3) alone, 63 gai/ha, 3 weeks after spraying
Procedure: as §7, §8, §9, §5, §10, §11, §12

Setaria faberi = assay: as above; settings: Compound (I-3) alone, 63 gai/ha, 3 weeks after spraying
Procedure: as §7, §8, §9, §5, §10, §11, §12

Sorghum halepense = assay: as above; settings: Compound (I-3) alone, 63 gai/ha, 3 weeks after spraying
Procedure: as §7, §8, §9, §5, §10, §11, §12

Triticum aestivum = assay: Test Example 5: spraying on the soil surface, herbicidal effect from above ground weight (useful plant); settings: Compound (I-3) alone, sprayed on the soil surface, seven weeks after spraying
Procedure: as §7, §9, §11
A test emulsion was prepared in the same manner as in Test Example 4.
A 300 cm^2 pot was filled with soil, and seeds of Triticum aestivum, multidrug-resistant Alopecurus myosuroides, Lolium multiflorum and Avena fatua were sown into the surface layer, and covered with soil to a thickness of 0.5 to 1 cm. The above test emulsion was diluted so that the amount of the active ingredient became a predetermined amount, and sprayed on the soil surface at a spray water volume of 250 L per hectare, followed by growth in an outdoor environment.
Seven weeks after spraying, the evaluation was carried out in the same manner as in Test Example 4, except that the above ground weights of weeds in the untreated and treated areas were measured for each weed.
The following plants were used as useful plants [scientific names]. • Wheat [Triticum aestivum]

Question: How did the pest or weed control at 3.1 ppm (Ambrosia artemisiifolia; read-out: Herbicidal effect (%), applied alone, amount of active ingredient 3.1 ppm) turn out when `COC12OC1(c1ccc(C(F)(F)F)c3c1CCCS3(=O)=O)C=NN(C)C2=O` (centres unmarked) [Compound (I-3), 1-methoxy-3-methyl-6-(1,1-dioxido-8-(trifluoromethyl)thiochroman-5-yl)-7-oxa-3,4-diazabicyclo[4.1.0]hept-4-en-2-one] was run?
Answer: 65%

Question: What about the pest or weed control at 3.1 ppm (Ambrosia artemisiifolia; read-out: Herbicidal effect (%), compound applied alone, amount of active ingredient 3.1 ppm) of the same compound?
Answer: 70%

Question: And the Herbicidal effect (Digitaria ciliaris)?
Answer: 75%

Question: What about the Herbicidal effect (Abutilon theophrasti; 0.2 ppm) of the same compound?
Answer: 75%

Question: What about the Herbicidal effect (Abutilon theophrasti; 3.1 ppm) of the same compound?
Answer: 75%

Question: And the “Actual measured value of herbicidal effect” value (“Actual measured value” below) (Zea mays)?
Answer: 0%

Question: And the “Actual measured value” value (Amaranthus palmeri)?
Answer: 100%

Question: And the “Actual measured value” value (Brachiaria platyphylla)?
Answer: 80%

Question: What about the “Actual measured value” value (Ipomoea hederacea) of the same compound?
Answer: 70%

Question: And the “Actual measured value” value (Senna obtusifolia)?
Answer: 60%

Question: What about the “Actual measured value” value (Setaria faberi) of the same compound?
Answer: 80%

Question: What about the “Actual measured value” value (Sorghum halepense) of the same compound?
Answer: 80%

Question: What about the “Actual measured value” value (Triticum aestivum; 63 gai/ha) of the same compound?
Answer: 0%

Question: And the “Actual measured value” value (Triticum aestivum; 125 gai/ha)?
Answer: 0%

From patent US20240130368A1, “HERBICIDAL COMPOSITION” (Nippon Soda Co., Ltd., priority 2021, published 2024)
